According to patent US10336732B2, “1-heterocyclyl isochromanyl compounds and analogs for treating CNS disorders” (Sunovion Pharmaceuticals Inc., priority 2015, dated 2019):

Target: T1, 5-HT transporter (Homo sapiens, UniProt P31645)
T1 construct: expressed in transfected cells; host or cells: CHO cells
Assay: In vitro radioligand binding assay, 5-HT transporter, [3H]imipramine
Settings: human recombinant (CHO cells)
Description: Certain compounds were tested by in vitro binding assays using standard procedures. […] These receptors and assays are well known to those skilled in the art, as exemplified by the following: Abramovitz, M. et al. (2000), Biochem. Biophys. Acta., 1483: 285-293 (EP4, IP (PGI2)); Aharony, D. et al. (1993), Mol. Pharmacol., 44: 356-363 (NK2); Ardati, A. et al. (1997), Mol. Pharmacol., 51: 816-824 (NOP (ORL1)); Bignon, E. et al. (1999), J. Pharmacol. Exp. Ther. 289: 742-751 (CCK1 (CCKA)); Bloomquist, B. T. et al. (1998), Biochem. Biophys. Res. Commun., 243: 474-479 (GAL2); Brockhaus, M. et al. (1990), Proc. Natl. Acad. Sci. U.S.A., 87: 3127-3131 (TNF-α); Brown, G. B. (1986), J. Neurosci., 6: 2064-2070 (Na+ channel (site 2)); Buchan, K. W. et al. (1994), Brit. J. Pharmacol., 112: 1251-1257 (ETA); Cesura, A. M. et al. (1990), Mol. Pharmacol., 37: 358-366 (MAO-A); Choi, D. S. et al. (1994), FEBS Lett., 352: 393-399 (5-HT2B); Clark, A. F. et al. (1996), Invest. Ophtalmol. Vis. […]

T1 sequence (P31645 whole entry): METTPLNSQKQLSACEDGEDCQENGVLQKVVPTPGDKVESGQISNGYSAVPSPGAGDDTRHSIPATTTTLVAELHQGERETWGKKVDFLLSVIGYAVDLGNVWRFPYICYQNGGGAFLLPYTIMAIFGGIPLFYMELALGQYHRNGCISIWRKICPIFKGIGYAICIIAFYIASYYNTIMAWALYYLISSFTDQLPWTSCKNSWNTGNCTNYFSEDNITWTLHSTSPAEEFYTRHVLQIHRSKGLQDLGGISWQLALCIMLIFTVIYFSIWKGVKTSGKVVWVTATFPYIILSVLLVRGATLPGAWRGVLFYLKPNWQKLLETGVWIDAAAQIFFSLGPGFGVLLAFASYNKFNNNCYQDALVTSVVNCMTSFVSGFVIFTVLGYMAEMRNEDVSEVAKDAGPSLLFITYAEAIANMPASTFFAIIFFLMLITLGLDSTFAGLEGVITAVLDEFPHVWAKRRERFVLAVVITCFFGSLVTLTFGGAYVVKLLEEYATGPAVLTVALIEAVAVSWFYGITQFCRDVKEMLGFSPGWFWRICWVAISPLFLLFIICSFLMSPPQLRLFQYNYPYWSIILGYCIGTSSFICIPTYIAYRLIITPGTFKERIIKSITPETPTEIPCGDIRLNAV

SMILES: Fc1ccc2c(c1)CCO[C@H]2[C@@H]1CCN1 [Compound I-90, (S)-2-((R)-6-fluoroisochroman-1-yl)azetidine]
- Sert percent inhibition of specific binding: 80%
